The text below walks through data of PMC10224356, “Trisubstituted 1,3,5-Triazines as Histamine H4 Receptor Antagonists with Promising Activity In Vivo” (Molecules, 2023).

The test system of series [1] is mice. Put plainly: Chloroquine-induced pruritus. The class given is in vivo. The text has this:
When comparing the activity of the tested in both used models, it should be noted that the efficacy (higher maximal effect) and potency (lower doses needed to obtain the same result) of the compound were better in histamine-induced pruritus. Nevertheless, compound 6 was also active in histamine-independent itch, which contrasts with the activity of pyrilamine representing a commonly used drug in the treatment of pruritus. […] The wide spectrum of antipruritic activity of compound 6 is very promising, considering that histamine-independent itch is still a crucial clinical problem in pruritus treatment.
The surface (around 2 cm^2) of the mice’s nape was shaved at least 2 days prior to experiments. On the day of the experiment, mice were individually placed in plastic chambers (15 × 15 × 30 cm) and after the 30 min habituation period, they were given an intradermal (i.d.) injection of histamine dihydrochloride (10 µmol/site) or chloroquine (CQ, 200 µg/site), which were dissolved in physiological saline and administrated in the constant volume of 20 μL. Immediately after the injection, scratching (series of movements considered as a single scratching bout) of the injected site by the hind paw was counted for 60 min or 30 min after histamine and CQ administration, respectively. Before pruritogens injection different groups of mice were treated i.p. with vehicle (10 mL/kg, negative control) or the dose–response of investigated compound.
Figure 9 The effect of compound 6 and reference compound pyrilamine (Pyr) on the number of scratching bouts during 60 min-long observation in histamine-induced pruritus (A) and 30 min-long observation in chloroquine-induced pruritus (B). The tested compound or vehicle (1% solution of Tween 80) was administered intraperitoneally (i.p.) 30 min before the intradermal (i.d.) injection of histamine or chloroquine. The results are presented as bar plots showing the mean ± SEM. Statistical analysis: one-way ANOVA followed by Dunnett’s post hoc test, * p < 0.05, ** p < 0.01, *** p < 0.001, n = 8–10 mice per group.

The melting point is the temperature, or range, at which the solid turns liquid.

Consider `CN1CCN(c2nc(N)nc(CC3CCCC3)n2)CC1` [Compound 6, 4-(Cyclopentylmethyl)-6-(4-methylpiperazin-1-yl)-1,3,5-triazin-2-amine], for which the melting point lay within 165 to 168 °C. The “Scratch bouts, chloroquine-induced pruritus, % of the control value” in series [1] (50 mg/kg i.p., 30 min observation) is on record as 25.12 % of the control value. Moreover, the “Number of scratch bouts, chloroquine-induced pruritus” value in series [1] (50 mg/kg i.p., 30 min observation (control 72.20 ± 11.59)) is reported as 18.14 ± 3.48 scratch bouts. Besides, the “Effect on number of scratch bouts, chloroquine-induced pruritus” value in series [1] (doses 25 mg/kg and 50 mg/kg i.p.) was “significantly decreased the number of scratch bouts”. The “Effect on number of scratch bouts, chloroquine-induced pruritus” value in series [1] (doses of 6.25 mg/kg and 12.5 mg/kg i.p.) was “not statistically significant”.
